The values below are quoted from earlier work in US20240122227A1, “AEROSOLIZABLE MATERIAL” (Nicoventures Trading Limited, priority 2019, published 2024).

The target in this series is CB2 receptor compared to the CB1 receptor (Homo sapiens, UniProt P34972). The settings on record: see Br J Pharmacol. 2001 October; 134(4): 845-852.
Chain of CB2 receptor compared to the CB1 receptor (P34972 whole entry): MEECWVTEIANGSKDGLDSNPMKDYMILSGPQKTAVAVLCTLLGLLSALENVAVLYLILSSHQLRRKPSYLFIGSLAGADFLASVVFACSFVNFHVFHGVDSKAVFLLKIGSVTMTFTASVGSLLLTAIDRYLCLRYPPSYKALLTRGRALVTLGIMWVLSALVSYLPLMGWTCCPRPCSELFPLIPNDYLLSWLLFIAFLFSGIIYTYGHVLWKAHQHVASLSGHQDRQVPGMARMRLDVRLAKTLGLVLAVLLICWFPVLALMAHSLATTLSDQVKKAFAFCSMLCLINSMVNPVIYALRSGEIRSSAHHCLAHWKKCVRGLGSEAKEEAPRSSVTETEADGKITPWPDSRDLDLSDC

In the case of `C=C(C)[C@H]1CCC(C)=C[C@@H]1c1c(O)cc(CCCCC)cc1O` [(+)-cannabidiol], the “selectivity for the CB2 receptor compared to the CB1 receptor” value is on record as “increased selectivity for the CB2 receptor compared to the CB1 receptor”.

Take `C=C(C)[C@@H]1CCC(C)=C[C@H]1c1c(O)cc(CCCCC)cc1O` [(−)-cannabidiol]: the “selectivity for the CB2 receptor compared to the CB1 receptor” value is “does not show any selectivity between the two receptors”.
